Experimental findings from ChEMBL document CHEMBL1201862, “PubChem BioAssay data set” (2004) are described below.

Some test systems named below: UO-31; OVCAR-8; PC-3; 786-0; SN12C; HOP-92; SF-268; HCC 2998; TK-10; HCT-15; SK-OV-3; SR; A498; RPMI-8226; A549; MDA-MB-435; U-251; SNB-75; SK-MEL-2.
Holding throughout (test): NCI anticancer screen, dose series, 48 h

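Tested at 5 concentrations; 48 h exposure; 96-well plates; endpoints linearly interpolated, else capped at highest concentration. Here, GI50 denotes the concentration required for 50% inhibition of growth.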 Activity calls are given as the source filed them. No stated cut-off is given here; in the data, active = GI50 up to about 1.1 µM and inactive = higher. Some results are limits rather than exact numbers.

Consider `COc1cc(C=O)cc(/C=N/n2c3ccccc3c3ccccc32)c1O`, for which the GI50 was 8.18 µM (inactive) in the assay with UO-31; 8.09 µM (inactive) with OVCAR-8; 5.41 µM (inactive) in the assay with PC-3; 11.9 µM (inactive) in the assay on 786-0; 5.46 µM (inactive) in the assay with SN12C; 2.91 µM (inactive) in the assay with HOP-92. Further, the GI50 with SF-268 was 4.34 µM (inactive); in the assay with HCC 2998, 19.3 µM (inactive); with TK-10 it was 36.9 µM (inactive); with HCT-15, 14.5 µM; in the assay on SK-OV-3, 6.76 µM (inactive); in the assay with SR it was 4.72 µM (inactive). The GI50 with A498 was 20.7 µM (inactive); in the assay on RPMI-8226, 5.01 µM (inactive); with A549, > 100 µM (inactive); in the assay on MDA-MB-435, 4.05 µM (inactive); in the assay with U-251 it was 9.04 µM (inactive); in the assay with SNB-75, 2.79 µM (inactive).

For `Cc1nn(C(=O)c2ccccc2O)c2c1C(c1ccc3ccccc3c1O)SC(=N)N2` (stereo unspecified), the GI50 is 4.2 µM (inactive) in the assay on UO-31; 5.11 µM (inactive) in the assay on OVCAR-8; 3.66 µM (inactive) in the assay on PC-3; 4.39 µM (inactive) in the assay on SK-MEL-2; 6.47 µM (inactive) with 786-0; 6.58 µM (inactive) in the assay with SN12C. Further, the GI50 with HOP-92 is 0.378 µM (active); in the assay with SF-268, 4.89 µM (inactive); in the assay with TK-10 it was 8.75 µM (inactive); with HCT-15, 4.26 µM; with SK-OV-3, 6.3 µM (inactive); in the assay with SR, 4.53 µM (inactive). Further, the GI50 in the assay with A498 is 6.47 µM (inactive); in the assay with RPMI-8226, 4.34 µM (inactive); in the assay with A549 it was 4.91 µM (inactive); in the assay with MDA-MB-435, 5.93 µM (inactive); in the assay with U-251, 3.66 µM (inactive); in the assay on SNB-75, 2.85 µM (inactive).

With `Cc1cccnc1N/C=C1\C(=O)NC(=O)N(C)C1=O`, the GI50 with UO-31, in the assay with OVCAR-8, with PC-3, in the assay on SK-MEL-2, in the assay on 786-0 and in the assay on SN12C was > 100 µM (inactive) throughout. Also, the GI50 in the assay with HOP-92 was 65.6 µM (inactive); in the assay on SF-268 it was > 100 µM (inactive); with TK-10, > 100 µM (inactive); with HCT-15 it was > 100 µM; with SK-OV-3, > 100 µM (inactive); with A498, 12.3 µM (inactive). For the same molecule, the GI50 in the assay on A549 was > 100 µM (inactive); with MDA-MB-435 it was > 100 µM (inactive); in the assay on U-251, > 100 µM (inactive); in the assay with SNB-75, 35.9 µM (inactive).

Consider `CC(=O)Oc1ccc2cc(Oc3ccc(Cl)cc3)c(=O)oc2c1`, for which the GI50 is 30.6 µM (inactive) in the assay on UO-31; 19.1 µM (inactive) with OVCAR-8; 28.2 µM (inactive) in the assay with PC-3; 36.1 µM (inactive) with 786-0; 29.6 µM (inactive) in the assay with SN12C; 38.1 µM (inactive) in the assay on HOP-92. Besides, the GI50 is 53.8 µM (inactive) in the assay on SF-268; 35.8 µM (inactive) in the assay with HCC 2998; > 100 µM (inactive) in the assay on TK-10; 28.8 µM in the assay on HCT-15; 64.7 µM (inactive) in the assay with SR; 25.2 µM (inactive) in the assay with A498. The GI50 in the assay with RPMI-8226 is 34.8 µM (inactive); in the assay on A549, 21.6 µM (inactive); with U-251, 42.8 µM (inactive); in the assay on SNB-75, 75.5 µM (inactive).

As to `O=C(Nc1ccc(Cl)cc1)NS(=O)(=O)c1ccc2c(c1)CCC2` [SULOFENUR], the GI50 with UO-31 was 25.1 µM (inactive); in the assay with OVCAR-8, 40.8 µM (inactive); in the assay on PC-3 it was 19.1 µM (inactive); in the assay with SK-MEL-2 it was 43.8 µM (inactive); in the assay on 786-0 it was 35.3 µM (inactive); with SN12C it was 39.2 µM (inactive). The GI50 with SF-268 is 49.2 µM (inactive); in the assay on HCC 2998, 31.6 µM (inactive); with TK-10, 40.5 µM (inactive); with HCT-15, 35.6 µM; in the assay with SK-OV-3 it was 25.8 µM (inactive); with SR, > 57 µM (inactive). The GI50 with A498 was 45 µM (inactive); with RPMI-8226, 24.4 µM (inactive); in the assay with A549, 32.7 µM (inactive); in the assay on MDA-MB-435 it was 17.6 µM (inactive); in the assay on U-251, 30.7 µM (inactive); in the assay with SNB-75 it was > 55.6 µM (inactive).
